According to patent US12459922B2 (Gilead Sciences, Inc., priority 2022, dated 2025):

system: endogenous cellular STAT1 (phosphorylated at Tyr701) in NCI-H1373 cells; test: Phospho-STAT1 (Tyr701) LANCE Ultra TR-FRET Detection Assay; assay type: cell-based; conditions: 48 hours, phospho-STAT1 (Tyr701) induction, read-out: NH1373 pSTAT1 EC50

Compound	EC50 [nM]
C[C@@H](CCCn1ccc2cc(-c3ncc(C(F)(F)F)c(N)n3)c(F)cc2c1=O)Nc1cn[nH]c(=O)c1C(F)(F)F [Example 128, (S)-6-(4-amino-5-(trifluoromethyl)pyrimidin-2-yl)-7-fluoro-2-(4-((6-oxo-5-(trifluoromethyl)-1,6-dihydropyridazin-4-yl)amino)pentyl)isoquinolin-1(2H)-one]	16.7

same assay, conditions: Homo sapiens, 48 hours, phospho-STAT1 (Tyr701) induction, read-out: NH1373 pSTAT1 EC50

Compound	EC50 [nM]
O=c1[nH]ncc(N2CCCN2CCCn2ccc3cc(-c4ncc(C(F)(F)F)cn4)c(F)cc3c2=O)c1C(F)(F)F [Example 154, 7-fluoro-2-[3-[2-[6-oxo-5-(trifluoromethyl)-1H-pyridazin-4-yl]pyrazolidin-1-yl]propyl]-6-[5-(trifluoromethyl)pyrimidin-2-yl]isoquinolin-1-one]	115

same assay, conditions: Homo sapiens, NCI-H1373, 48 h, phospho-STAT1 (Tyr701) induction, read-out: NH1373 pSTAT1 EC50

Compound	EC50 [nM]
C[C@@H](CCCn1cnc2cc(-c3ncc(S(C)(=O)=O)cn3)c(F)cc2c1=O)Nc1cn[nH]c(=O)c1C(F)(F)F [Example 126, (S)-6-fluoro-7-(5-(methylsulfonyl)pyrimidin-2-yl)-3-(4-((6-oxo-5-(trifluoromethyl)-1,6-dihydropyridazin-4-yl)amino)pentyl)quinazolin-4(3H)-one]	1290
C[C@@H](CCCn1cnc2cc(-c3ncc(OCCO)cn3)c(F)cc2c1=O)Nc1cn[nH]c(=O)c1C(F)(F)F [Example 127, (S)-6-fluoro-7-(5-(2-hydroxyethoxy)pyrimidin-2-yl)-3-(4-((6-oxo-5-(trifluoromethyl)-1,6-dihydropyridazin-4-yl)amino)pentyl)quinazolin-4(3H)-one]	474
C[C@@H](CCCn1ccc2cc(-c3ncc(OCCO)cn3)c(F)cc2c1=O)Nc1cn[nH]c(=O)c1C(F)(F)F [Example 129, (S)-7-fluoro-6-(5-(2-hydroxyethoxy)pyrimidin-2-yl)-2-(4-((6-oxo-5-(trifluoromethyl)-1,6-dihydropyridazin-4-yl)amino)pentyl)isoquinolin-1(2H)-one]	77.8
O=c1[nH]ncc(NC[C@H]2C[C@H](Cn3ccc4cc(-c5ncc(C(F)(F)F)cn5)c(F)c(F)c4c3=O)C2)c1C(F)(F)F [Example 130, 7,8-difluoro-2-(((1R,3R)-3-(((6-oxo-5-(trifluoromethyl)-1,6-dihydropyridazin-4-yl)amino)methyl)cyclobutyl)methyl)-6-(5-(trifluoromethyl)pyrimidin-2-yl)isoquinolin-1(2H)-one]	1470
C[C@@H](Nc1cn[nH]c(=O)c1C(F)(F)F)/C(F)=C/Cn1ccc2cc(-c3ncc(C(F)(F)F)cn3)c(F)c(F)c2c1=O [Example 131, (R,Z)-7,8-difluoro-2-(3-fluoro-4-((6-oxo-5-(trifluoromethyl)-1,6-dihydropyridazin-4-yl)amino)pent-2-en-1-yl)-6-(5-(trifluoromethyl)pyrimidin-2-yl)isoquinolin-1(2H)-one]	158
C[C@H](Nc1cn[nH]c(=O)c1C(F)(F)F)/C(F)=C/Cn1ccc2cc(-c3ncc(C(F)(F)F)cn3)c(F)c(F)c2c1=O [Example 132, (S,Z)-7,8-difluoro-2-(3-fluoro-4-((6-oxo-5-(trifluoromethyl)-1,6-dihydropyridazin-4-yl)amino)pent-2-en-1-yl)-6-(5-(trifluoromethyl)pyrimidin-2-yl)isoquinolin-1(2H)-one]	3.47
C[C@@H](/C=C/Cn1ccc2cc(-c3ncc(C(F)(F)F)cn3)c(F)c(F)c2c1=O)Nc1cn[nH]c(=O)c1C(F)(F)F [Example 133, (S,E)-7,8-difluoro-2-(4-((6-oxo-5-(trifluoromethyl)-1,6-dihydropyridazin-4-yl)amino)pent-2-en-1-yl)-6-(5-(trifluoromethyl)pyrimidin-2-yl)isoquinolin-1(2H)-one]	2.83
COc1cnc(-c2cc3ccn(C/C=C/[C@H](C)Nc4cn[nH]c(=O)c4C(F)(F)F)c(=O)c3cc2F)nc1N [Example 134, (S,E)-6-(4-amino-5-methoxypyrimidin-2-yl)-7-fluoro-2-(4-((6-oxo-5-(trifluoromethyl)-1,6-dihydropyridazin-4-yl)amino)pent-2-en-1-yl)isoquinolin-1(2H)-one]	5.19
COC[C@@H](CCCn1ccc2cc(-c3ncc(C(F)(F)F)cn3)c(F)cc2c1=O)Nc1cn[nH]c(=O)c1C(F)(F)F [Example 135, (R)-7-fluoro-2-(5-methoxy-4-((6-oxo-5-(trifluoromethyl)-1,6-dihydropyridazin-4-yl)amino)pentyl)-6-(5-(trifluoromethyl)pyrimidin-2-yl)isoquinolin-1(2H)-one]	17.7
CC(CCCn1ccc2cc(-c3ncc(C(F)(F)F)cn3)c(F)cc2c1=O)Oc1cn[nH]c(=O)c1C(F)(F)F (centres unmarked) [Example 136, 7-fluoro-2-[4-[[6-oxo-5-(trifluoromethyl)-1H-pyridazin-4-yl]oxy]pentyl]-6-[5-(trifluoromethyl)pyrimidin-2-yl]isoquinolin-1-one]	75.9
CC(C)(CCCn1ccc2cc(-c3ncc(C(F)(F)F)c(N)n3)c(F)cc2c1=O)Nc1cn[nH]c(=O)c1C(F)(F)F [Example 137, 6-(4-amino-5-(trifluoromethyl)pyrimidin-2-yl)-7-fluoro-2-(4-methyl-4-((6-oxo-5-(trifluoromethyl)-1,6-dihydropyridazin-4-yl)amino)pentyl)isoquinolin-1(2H)-one]	50.6
O=c1[nH]ncc(N2C[C@@H](O)C[C@H]2CCCn2ccc3cc(-c4ncc(C(F)(F)F)cn4)c(F)cc3c2=O)c1C(F)(F)F [Example 138, 7-fluoro-2-(3-((2R,4S)-4-hydroxy-1-(6-oxo-5-(trifluoromethyl)-1,6-dihydropyridazin-4-yl)pyrrolidin-2-yl)propyl)-6-(5-(trifluoromethyl)pyrimidin-2-yl)isoquinolin-1(2H)-one]	55.5
O=c1[nH]ncc(N2CC(F)(F)C[C@H]2CCCn2ccc3cc(-c4ncc(C(F)(F)F)cn4)c(F)cc3c2=O)c1C(F)(F)F [Example 139, 2-[3-[(2R)-4,4-difluoro-1-[6-oxo-5-(trifluoromethyl)-1H-pyridazin-4-yl]pyrrolidin-2-yl]propyl]-7-fluoro-6-[5-(trifluoromethyl)pyrimidin-2-yl]isoquinolin-1-one]	64.8
O=c1[nH]ncc(N2C[C@H](F)C[C@H]2CCCn2ccc3cc(-c4ncc(C(F)(F)F)cn4)c(F)cc3c2=O)c1C(F)(F)F [Example 140, 7-fluoro-2-[3-[(2R,4R)-4-fluoro-1-[6-oxo-5-(trifluoromethyl)-1H-pyridazin-4-yl]pyrrolidin-2-yl]propyl]-6-[5-(trifluoromethyl)pyrimidin-2-yl]isoquinolin-1-one]	585
O=c1[nH]ncc(N2C[C@@H](F)C[C@H]2CCCn2ccc3cc(-c4ncc(C(F)(F)F)cn4)c(F)cc3c2=O)c1C(F)(F)F [Example 141, 7-fluoro-2-[3-[(2R,4S)-4-fluoro-1-[6-oxo-5-(trifluoromethyl)-1H-pyridazin-4-yl]pyrrolidin-2-yl]propyl]-6-[5-(trifluoromethyl)pyrimidin-2-yl]isoquinolin-1-one]	16.2
O=c1[nH]ncc(N2CC3(CC3)C[C@H]2CCCn2ccc3cc(-c4ncc(C(F)(F)F)cn4)c(F)cc3c2=O)c1C(F)(F)F [Example 142, 7-fluoro-2-[3-[(6R)-5-[6-oxo-5-(trifluoromethyl)-1H-pyridazin-4-yl]-5-azaspiro[2.4]heptan-6-yl]propyl]-6-[5-(trifluoromethyl)pyrimidin-2-yl]isoquinolin-1-one]	38.6
Nc1nc(-c2cc3ccn(CCC[C@@H]4CC5(CC5)CN4c4cn[nH]c(=O)c4C(F)(F)F)c(=O)c3cc2F)ncc1C(F)F [Example 143, 6-[4-amino-5-(difluoromethyl)pyrimidin-2-yl]-7-fluoro-2-[3-[(6R)-5-[6-oxo-5-(trifluoromethyl)-1H-pyridazin-4-yl]-5-azaspiro[2.4]heptan-6-yl]propyl]isoquinolin-1-one]	26.5
Nc1nc(-c2cc3ccn(CCC[C@@H](Nc4cn[nH]c(=O)c4C(F)(F)F)C4CC4)c(=O)c3cc2F)ncc1C(F)(F)F [Example 144, 6-[4-amino-5-(trifluoromethyl)pyrimidin-2-yl]-2-[(4R)-4-cyclopropyl-4-[[6-oxo-5-(trifluoromethyl)-1H-pyridazin-4-yl]amino]butyl]-7-fluoro-isoquinolin-1-one]	3.55
N#Cc1cnc(-c2cc3ccn(CCC[C@@H](Nc4cn[nH]c(=O)c4C(F)(F)F)C4CC4)c(=O)c3cc2F)nc1N [Example 145, 4-amino-2-[2-[(4R)-4-cyclopropyl-4-[[6-oxo-5-(trifluoromethyl)-1H-pyridazin-4-yl]amino]butyl]-7-fluoro-1-oxoisoquinolin-6-yl]pyrimidine-5-carbonitrile]	14.1
COc1cnc(-c2cc3ccn(CCC[C@@H](Nc4cn[nH]c(=O)c4C(F)(F)F)C4CC4)c(=O)c3cc2F)nc1N [Example 146, 6-(4-amino-5-methoxypyrimidin-2-yl)-2-[(4R)-4-cyclopropyl-4-[[6-oxo-5-(trifluoromethyl)-1H-pyridazin-4-yl]amino]butyl]-7-fluoroisoquinolin-1-one]	14.5
Nc1nc(-c2cc3ccn(CCC[C@@H](Nc4cn[nH]c(=O)c4C(F)(F)F)C4CC4)c(=O)c3cc2F)ncc1C(F)F [Example 147]	39.1
O=c1[nH]ncc(N2CCC2CCCn2cnc3cc(-c4ncc(C(F)(F)F)cn4)c(F)cc3c2=O)c1C(F)(F)F (centres unmarked) [Example 150, 6-fluoro-3-[3-[1-[6-oxo-5-(trifluoromethyl)-1H-pyridazin-4-yl]azetidin-2-yl]propyl]-7-[5-(trifluoromethyl)pyrimidin-2-yl]quinazolin-4-one]	19.1
COc1cnc(-c2cc3ccn(CCCC4CCN4c4cn[nH]c(=O)c4C(F)(F)F)c(=O)c3cc2F)nc1N (centres unmarked) [Example 153, 6-(4-amino-5-methoxy-pyrimidin-2-yl)-7-fluoro-2-[3-[1-[6-oxo-5-(trifluoromethyl)-1H-pyridazin-4-yl]azetidin-2-yl]propyl]isoquinolin-1-one]	10.9
CC[C@@H](CCCn1cnc2cc(-c3ncc(Cl)cn3)c(F)cc2c1=O)Nc1cn[nH]c(=O)c1C(F)(F)F [Example 157, 7-(5-chloropyrimidin-2-yl)-6-fluoro-3-[(4S)-4-[[6-oxo-5-(trifluoromethyl)-1H-pyridazin-4-yl]amino]hexyl]quinazolin-4-one]	22.7
